Experimental data as given in patent US6673793B2, “Oxazinoquinolones useful for the treatment of viral infections” (Pharmacia & Upjohn Co., priority 2000, dated 2004).

Legend:
[1] = target: T1, CMV polymerase (Human cytomegalovirus, UniProt P08546); assay: HCMV polymerase assay, scintillation proximity assay (SPA), modified version; format: biochemical; settings: modified HCMV polymerase SPA assay: compounds diluted in 100% DMSO, 4.5 mM DTT in polymerase buffer, different lot of CMV polymerase; read-out: CMV polymerase IC50
T1 construct: made in house; host or cells: recombinant baculovirus-infected SF-9 cells
Protocol: The HCMV polymerase assay is performed using a scintillation proximity assay (SPA) as described in several references, such as N. D. Cook, et al., Pharmaceutical Manufacturing International, pages 49-53 (1992); K. Takeuchi, Laboratory Practice, September issue (1992); U.S. Pat. No. 4,568,649 (1986); which are incorporated by reference herein. Reactions are performed in 96-well plates. The assay is conducted in 100 μl volume with 5.4 mM HEPES (pH 7.5), 11.7 mM KCl, 4.5 mM MgCl2, 0.36 mg/ml BSA, and 90 nM ^3H-dTTP. Assays are run with and without CHAPS, (3-[(3-Cholamidopropyl)-dimethylammonio]-1-propane-sulfonate) at a final concentration of 2 mM. HCMV polymerase is diluted in enzyme dilution buffer containing 50% glycerol, 250 mM NaCl, 10 mM HEPES (pH 7.5), 100 μg/ml BSA, and 0.01% sodium azide. The HCMV polymerase, which is expressed in recombinant baculovirus-infected SF-9 cells and purified according to literature procedures, is added at 10% (or 10 μl) of the final reaction volume, i.e., 100 μl. Compounds are diluted in 50% DMSO and 10 μl are added to each well. Control wells contain an equivalent concentration of DMSO. Unless noted otherwise, reactions are initiated via the addition of 6 nM biotinylated poly(dA)-oligo(dT) template/primer to reaction mixtures containing the enzyme, substrate, and compounds of interest. Plates are incubated in a 25 C. or 37 C. H2O bath and terminated via the addition of 40 μl/reaction of 0.5 M EDTA (pH 8) per well. Reactions are terminated within the time-frame during which substrate incorporation is linear and varied depending upon the enzyme and conditions used, i.e., 30 min. for HCMV polymerase. Ten μl of streptavidin-SPA beads (20 mg/ml in PBS/10% glycerol) are added following termination of the reaction. Plates are incubated 10 min. at 37 C., then equilibrated to room temperature, and counted on a Packard Topcount. Linear regressions are performed and IC50's are calculated using computer software.
A modified version of the above HCMV polymerase assay is performed as described above, but with the following changes: Compounds are diluted in 100% DMSO until final dilution into assay buffer. In the previous assay, compounds are diluted in 50% DMSO. 4.5 mM dithiotherotol (DTT) is added to the polymerase buffer.

T1 sequence (P08546 whole entry): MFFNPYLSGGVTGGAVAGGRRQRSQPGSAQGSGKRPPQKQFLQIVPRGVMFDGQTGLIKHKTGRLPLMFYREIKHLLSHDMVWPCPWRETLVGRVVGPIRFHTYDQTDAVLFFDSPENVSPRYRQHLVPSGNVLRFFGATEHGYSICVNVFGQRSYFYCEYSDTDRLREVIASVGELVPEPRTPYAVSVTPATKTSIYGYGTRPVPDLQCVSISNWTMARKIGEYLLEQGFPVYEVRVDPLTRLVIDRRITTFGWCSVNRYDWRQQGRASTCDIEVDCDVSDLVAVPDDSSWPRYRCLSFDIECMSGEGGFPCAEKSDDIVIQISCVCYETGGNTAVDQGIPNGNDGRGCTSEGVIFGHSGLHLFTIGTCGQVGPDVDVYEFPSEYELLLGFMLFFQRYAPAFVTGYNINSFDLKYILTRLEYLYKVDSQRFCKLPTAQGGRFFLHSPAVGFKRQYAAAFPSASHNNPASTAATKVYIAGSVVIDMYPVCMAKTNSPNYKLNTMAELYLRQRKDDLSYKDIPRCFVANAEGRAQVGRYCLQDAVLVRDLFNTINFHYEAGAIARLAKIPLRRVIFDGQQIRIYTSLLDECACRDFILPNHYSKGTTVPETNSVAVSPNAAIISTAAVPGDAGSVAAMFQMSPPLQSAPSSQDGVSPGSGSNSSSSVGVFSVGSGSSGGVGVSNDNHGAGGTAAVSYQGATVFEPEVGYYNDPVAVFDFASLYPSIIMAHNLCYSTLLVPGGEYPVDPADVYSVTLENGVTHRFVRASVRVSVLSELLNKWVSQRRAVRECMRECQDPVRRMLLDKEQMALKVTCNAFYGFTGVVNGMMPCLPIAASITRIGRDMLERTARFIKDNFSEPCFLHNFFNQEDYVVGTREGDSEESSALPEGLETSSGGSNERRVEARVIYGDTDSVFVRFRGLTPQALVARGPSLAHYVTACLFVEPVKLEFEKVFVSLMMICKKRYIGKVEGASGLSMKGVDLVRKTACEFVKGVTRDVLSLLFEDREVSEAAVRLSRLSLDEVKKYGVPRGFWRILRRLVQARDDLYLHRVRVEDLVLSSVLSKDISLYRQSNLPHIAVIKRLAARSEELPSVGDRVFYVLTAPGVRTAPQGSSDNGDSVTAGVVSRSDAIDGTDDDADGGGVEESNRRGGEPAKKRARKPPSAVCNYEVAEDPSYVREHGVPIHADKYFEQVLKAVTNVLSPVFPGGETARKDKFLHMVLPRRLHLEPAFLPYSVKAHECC

Row | SMILES | melting point | IC50 [1]
1 | O=C(NCc1ccc(Cl)cc1)c1cn2c3c(cc(CN4CCOCC4)cc3c1=O)OC(CN1CCOCC1)C2 (stereo not shown) [Example 2, N-(4-Chlorobenzyl)-2,9-bis(4-morpholinylmethyl)-7-oxo-2,3-dihydro-7H-[1,4]oxazino[2,3,4-ij]quinoline-6-carboxamide] | 178 to 180 °C | 760 nM
2 | CN(C)CC1Cn2cc(C(=O)NCc3ccc(Cl)cc3)c(=O)c3cc(CN4CCOCC4)cc(c32)O1 (stereo not shown) [Example 3, N-(4-Chlorobenzyl)-2-[(dimethylamino)methyl]-9-(4-morpholinylmethyl)-7-oxo-2,3-dihydro-7H-[1,4]oxazino[2,3,4-ij]quinoline-6-carboxamide] | 168 to 170 °C | 760 nM
3 | CN1CCN(CC2Cn3cc(C(=O)NCc4ccc(Cl)cc4)c(=O)c4cc(CN5CCOCC5)cc(c43)O2)CC1 (stereo not shown) [Example 4, N-(4-Chlorobenzyl)-2-[(4-methyl-1-piperazinyl)methyl]-9-(4-morpholinylmethyl)-7-oxo-2,3-dihydro-7H-[1,4]oxazino[2,3,4-ij]quinoline-6-carboxamide] | 201 to 208 °C (dec.) | 1300 nM
4 | O=C(NCc1ccc(Cl)cc1)c1cn2c3c(cc(CN4CCOCC4)cc3c1=O)OC(CN1CCCC1)C2 (stereo not shown) [Example 5, N-(4-Chlorobenzyl)-9-(4-morpholinylmethyl)-7-oxo-2-(1-pyrrolidinylmethyl)-2,3-dihydro-7H-[1,4]oxazino[2,3,4-ij]quinoline-6-carboxamide] | 209.5 to 212 °C | 1100 nM
5 | O=C(NCc1ccc(Cl)cc1)c1cn2c3c(cc(CN4CCOCC4)cc3c1=O)OC(CN1CCCCC1)C2 (stereo not shown) [Example 8, N-(4-Chlorobenzyl)-9-(4-morpholinylmethyl)-7-oxo-2-(1-piperidinylmethyl)-2,3-dihydro-7H-[1,4]oxazino[2,3,4-ij]quinoline-6-carboxamide] | 213 to 215 °C | 1500 nM
6 | O=C(NCc1ccc(Cl)cc1)c1cn2c3c(cc(CN4CCOCC4)cc3c1=O)OC(CNCc1ccncc1)C2 (stereo not shown) [Example 12, N-(4-Chlorobenzyl)-9-(4-morpholinylmethyl)-7-oxo-2-{[(4-pyridinylmethyl)amino]methyl}-2,3-dihydro-7H-[1,4]oxazino[2,3,4-ij]quinoline-6-carboxamide] | 164 to 167 °C | 590 nM
7 | O=C(NCc1ccc(Cl)cc1)c1cn2c3c(cc(CN4CCOCC4)cc3c1=O)OC(Cn1ccnc1)C2 (stereo not shown) [Example 13, N-(4-Chlorobenzyl)-2-(1H-imidazol-1-ylmethyl)-9-(4-morpholinylmethyl)-7-oxo-2,3-dihydro-7H-[1,4]oxazino[2,3,4-ij]quinoline-6-carboxamide] | 217 to 219 °C (dec.) | 590 nM
8 | CSCC1Cn2cc(C(=O)NCc3ccc(Cl)cc3)c(=O)c3cc(CN4CCOCC4)cc(c32)O1 (stereo not shown) [Example 14, N-(4-Chlorobenzyl)-2-[(methylsulfanyl)methyl]-9-(4-morpholinylmethyl)-7-oxo-2,3-dihydro-7H-[1,4]oxazino[2,3,4-ij]quinoline-6-carboxamide] | 190 to 191 °C | 550 nM
9 | CC(C)(C)SCC1Cn2cc(C(=O)NCc3ccc(Cl)cc3)c(=O)c3cc(CN4CCOCC4)cc(c32)O1 (stereo not shown) [Example 15, 2-[(tert-Butylsulfanyl)methyl]-N-(4-chlorobenzyl)-9-(4-morpholinylmethyl)-7-oxo-2,3-dihydro-7H-[1,4]oxazino[2,3,4-ij]quinoline-6-carboxamide] | 198 to 201 °C | 420 nM
10 | COC(=O)CSCC1Cn2cc(C(=O)NCc3ccc(Cl)cc3)c(=O)c3cc(CN4CCOCC4)cc(c32)O1 (stereo not shown) [Example 18, Methyl ({[6-{[(4-chlorobenzyl)amino]carbonyl}-9-(4-morpholinylmethyl)-7-oxo-2,3-dihydro-7H-[1,4]oxazino[2,3,4-ij]quinolin-2-yl]methyl}sulfanyl)acetate] | 182.5 to 183 °C | 580 nM
11 | CC(=O)OCC1Cn2cc(C(=O)NCc3ccc(Cl)cc3)c(=O)c3cc(CN4CCOCC4)cc(c32)O1 (stereo not shown) [Example 24, [6-{[(4-Chlorobenzyl)amino]carbonyl}-9-(4-morpholinylmethyl)-7-oxo-2,3-dihydro-7H-[1,4]oxazino[2,3,4-ij]quinolin-2-yl]methyl acetate] | 215 to 218 °C | 740 nM
12 | O=C(NCc1ccc(Cl)cc1)c1cn2c3c(cc(CN4CCOCC4)cc3c1=O)OC(F)(F)C2 [Example 28, N-(4-Chlorobenzyl)-2,2-difluoro-9-(4-morpholinylmethyl)-7-oxo-2,3-dihydro-7H-[1,4]oxazino[2,3,4-ij]quinoline-6-carboxamide] | 213.5 to 216.5 °C | 600 nM
13 | O=C(NCc1ccc(Cl)cc1)c1cn2c3c(cc(CN4CCOCC4)cc3c1=O)OC(c1cccnc1)C2 (stereo not shown) [Example 34, N-(4-Chlorobenzyl)-9-(4-morpholinylmethyl)-7-oxo-2-(3-pyridinyl)-2,3-dihydro-7H-[1,4]oxazino[2,3,4-ij]quinoline-6-carboxamide] | – | 480 nM
14 | O=C(NCc1ccc(Cl)cc1)c1cn2c3c(cc(CN4CCOCC4)cc3c1=O)OC(c1ccncc1)C2 (stereo not shown) [Example 35, N-(4-Chlorobenzyl)-9-(4-morpholinylmethyl)-7-oxo-2-(4-pyridinyl)-2,3-dihydro-7H-[1,4]oxazino[2,3,4-ij]quinoline-6-carboxamide] | – | 610 nM
15 | N#Cc1cccc(C2Cn3cc(C(=O)NCc4ccc(Cl)cc4)c(=O)c4cc(CN5CCOCC5)cc(c43)O2)c1 (stereo not shown) [Example 36, N-(4-Chlorobenzyl)-2-(3-cyanophenyl)-9-(morpholin-4-ylmethyl)-7-oxo-2,3-dihydro-7H-[1,4]oxazino[2,3,4-ij]quinoline-6-carboxamide] | – | 420 nM
16 | O=C(NCc1ccc(Cl)cc1)c1cn2c3c(cc(CN4CCOCC4)cc3c1=O)OC(c1ccoc1)C2 (stereo not shown) [Example 37, N-(4-Chlorobenzyl)-2-(3-furyl)-9-(morpholin-4-ylmethyl)-7-oxo-2,3-dihydro-7H-[1,4]oxazino[2,3,4-ij]quinoline-6-carboxamide] | 193 to 196 °C | 380 nM
17 | O=C(NCc1ccc(Cl)cc1)c1cn2c3c(cc(CN4CCOCC4)cc3c1=O)OC(c1cccs1)C2 (stereo not shown) [Example 38, N-(4-Chlorobenzyl)-9-(morpholin-4-ylmethyl)-7-oxo-2-thien-2-yl-2,3-dihydro-7H-[1,4]oxazino[2,3,4-ij]quinoline-6-carboxamide] | – | 460 nM
18 | O=C(NCc1ccc(Cl)cc1)c1cn2c3c(cc(CN4CCOCC4)cc3c1=O)OC(c1cc(F)cc(F)c1)C2 (stereo not shown) [Example 39, N-(4-Chlorobenzyl)-2-(3,5-difluorophenyl)-9-(morpholin-4-ylmethyl)-7-oxo-2,3-dihydro-7H-[1,4]oxazino[2,3,4-ij]quinoline-6-carboxamide] | 234 to 236 °C | 330 nM
19 | O=C(NCc1ccc(Cl)cc1)c1cn2c3c(cc(CN4CCOCC4)cc3c1=O)OC(c1ccc3c(c1)OCO3)C2 (stereo not shown) [Example 40, 2-(1,3-Benzodioxol-5-yl)-N-(4-chlorobenzyl)-9-(morpholin-4-ylmethyl)-7-oxo-2,3-dihydro-7H-[1,4]oxazino[2,3,4-ij]quinoline-6-carboxamide] | 227 to 231 °C | 330 nM
20 | O=C(NCc1ccc(Cl)cc1)c1cn2c3c(cc(CN4CCOCC4)cc3c1=O)OC(CNCc1ccc(Cl)cc1)C2 (stereo not shown) [Example 56, N-(4-Chlorobenzyl)-2-{[(4-chlorobenzyl)amino]methyl}-9-(morpholin-4-ylmethyl)-7-oxo-2,3-dihydro-7H-[1,4]oxazino[2,3,4-ij]quinoline-6-carboxamide] | – | 660 nM
21 | COCOc1ccccc1C1Cn2cc(C(=O)NCc3ccc(Cl)cc3)c(=O)c3cc(CN4CCOCC4)cc(c32)O1 (stereo not shown) [Example 64, N-(4-Chlorobenzyl)-2-[2-(methoxymethoxy)phenyl]-9-(morpholin-4-ylmethyl)-7-oxo-2,3-dihydro-7H-[1,4]oxazino[2,3,4-ij]quinoline-6-carboxamide] | – | 1050 nM
22 | O=C(NCc1ccc(Cl)cc1)c1cn2c3c(cc(CN4CCOCC4)cc3c1=O)OC(c1ccccc1O)C2 (stereo not shown) [Example 68, N-(4-Chlorobenzyl)-2-(2-hydroxyphenyl)-9-(morpholin-4-ylmethyl)-7-oxo-2,3-dihydro-7H-[1,4]oxazino[2,3,4-ij]quinoline-6-carboxamide] | – | 820 nM
